Experiment [1] concerns GPR109A expression in human colon cancer cell lines. The experiment can be described thus: GPR109A mRNA expression in colon cancer cell lines by semi-quantitative RT-PCR. The class given is cell-based. The settings on record: 2 μg/ml, 72 h. Here is the method:
HPRT1 mRNA was used as an internal control. […] Steady-state levels of mRNAs for DNMT1, DNMT3a, DNMT3b, and HPRT1 were monitored in normal human colon tissues and in human colon cancer tissues by semi-quantitative RT-PCR. […] Three different colon cancer cell lines were treated with procainamide, a specific inhibitor of DNMT1, and the expression of GPR109A was monitored in cells treated with or without the inhibitor.

For experiment [2], the system named is LPS-induced NF-κB promoter activity in KM12L4 cells with ectopic expression of GPR109A. Nature of the experiment: LPS-induced NF-κB promoter reporter in KM12L4 cells transfected with human GPR109A cDNA. The class given is cell-based. The conditions noted are these: ligand 1 mM 8 h, LPS 100 ng/ml 4 h. From the text:
(§1) The anti-inflammatory effect of butyrate was monitored in colonic cells by its ability to suppress LPS-induced activation of NF-κB promoter with luciferase as the reporter. The participation of SLC5A8 and GPR109A in mediating the effects of extracellular butyrate was differentiated first by using specific ligands. If SLC5A8 is involved in the process, the transporter-facilitated entry of butyrate followed by inhibition of histone deacetylases (HDACs) inside the cells would be responsible for the effects. If GPR109A is involved in the process, the activation of the receptor by extracellular butyrate would be responsible for the effects. […] In these experiments, cells were first transfected with the construct carrying the NF-κB-luciferase, pretreated with GPR109A ligands (1 mM) for 8 h and then exposed to LPS (100 ng/ml) for 4 h. Following the treatment, cell lysates were used to measure luciferase activity as a read-out for activation of NF-κB.
(§2) The cells were transfected with either empty vector or human GPR109A cDNA. […] We cloned the human GPR109A cDNA by RT-PCR using mRNA prepared from human colon, and subcloned the RT-PCR product into pcDNA vector under the control of the cytomegalovirus promoter. The insert was sequenced to confirm its molecular identity. […] The activation of the receptor was monitored by measuring the activity of a K^+-channel.

The test system of experiment [3] is LPS-induced activation of NF-κB promoter in vector-transfected KM12L4 cells. Nature of the experiment: LPS-induced NF-κB promoter reporter in vector-transfected KM12L4 cells (no GPR109A). The class given is cell-based, human. The conditions noted are these: ligand 1 mM 8 h, LPS 100 ng/ml 4 h.
Text: as §1, §2

Experiment [4] relates to bone marrow-derived dendritic cells. Nature of the experiment: Development of bone marrow-derived dendritic cells (FACS). The class given is cell-based. The conditions noted are these: mouse bone marrow cells, ligand 1 mM, 4 days. On the procedure:
In these experiments, mouse bone marrow cells were collected and cultured in the presence of various ligands (1 mM) for 4 days. Following this, FACS (fluorescence activated cell sorting) was used to identify the fraction of various immune cell types in the sample.

For experiment [5], the system named is LPS-induced NF-κB promoter activity in HCT116 cells. The conditions noted are these: HCT116, no expression of GPR109A.
Text: as §1
(§3) Additionally, two different isogenic cell lines of the human colon cancer cell line HCT116, one with normal expression of the DNA methyltransferase I(DNMT1) and the other with deletion of the gene coding for the enzyme (HCT116-DNMT1^−/−) were used.

Experiment [6] has as its system LPS-induced NF-κB promoter activity in HCT116-DNMT1−/− cells. The settings on record: GPR109A expressed.
Text: as §1, §3

Experiment [7] concerns vector-transfected KM12L4 cells. The conditions noted are these: 0.5 mM, 24 h.
Experiment [8] has as its system LPS-induced activation of NF-κB promoter in CCD841 cells. The settings on record: ligand 1 mM 8 h, then LPS 100 ng/ml 4 h, luciferase.
Text: as §1

The test system of experiment [9] is Colon cancer cell line SW480. Nature of the experiment: Apoptosis of colon cancer cells with octanoate (propidium iodide FACS). The class given is cell-based. The conditions noted are these: human colon cancer cell line (SW480); varying concentrations, 24 or 48 h. Here is the method:
Colon cancer cell line SW480 was cultured in the presence of varying concentrations of octanoate for 24 or 48 h, and then cells were fixed in ethanol, stained with propidium iodide, and subjected to FACS analysis to determine the percent of cells undergoing apoptosis. Sub G0/1 cells were quantitated using Cell Quest program and values are expressed as mean+SEM.

The subject of experiment [10] is human breast cancer cell line. Nature of the experiment: Apoptosis of human breast cancer cell line with octanoate. The class given is cell-based. The settings on record: human breast cancer cell line expressing GPR109B. From the text:
The GPR109B receptor isoform is unique to humans. Its expression is not reduced in cancer. Its ligand specificity is different from that of GPR109A. One of the ligands which has relatively high affinity for GPR109B is the medium-chain fatty acid octanoate. This ligand was used to see if this receptor isoform can be used to kill tumor cells. […] Two cancer cell lines, a human colon cancer cell line and a human breast cancer cell line were studied. Both these cell lines express GPR109B because the expression of this receptor isoform is not affected in cancer. […] Thus, another embodiment provides a method for treating cancer by administering to a subject an effective amount of a ligand for GPR109B to promote apoptosis in tumor cells optionally in combination with a second therapeutic agent. A preferred ligand is octanoate or a derivative thereof.

SMILES strings stand for the structures. “Also recorded” adds a separate entry of the source.

Turning to `Nc1ncn([C@@H]2O[C@H](CO)[C@@H](O)[C@H]2O)c(=O)n1` [5-azacytidine], the “effect on GPR109A expression” value is listed as “the expression of the gene is induced” in [1] and “re-activates the expression of the receptor” in experiment [1] (listed as 5′-azacytidine).
For `CC(C)n1nnc2cc(C(=O)O)ccc21` [IPBT, 1-isopropyl-benzotriazole-5-carboxylic acid], in experiment [2], the “effect on LPS-induced NF-κB promoter activity” value is given as “did not have any effect”. Also, the “effect on LPS-induced activation of NF-κB promoter” value (“effect on LPS-induced activation” for short) in [3] was “did not have any effect”.
Consider `CC(=O)O` [acetate], for which, in [4], the “effect on development of dendritic cells” value is reported as “had no effect”.
Turning to `CC1(c2ccccc2)OC(C(=O)O)=CC1=O` (stereo not drawn) [acifran], the “effect on LPS-induced NF-κB promoter activity” value is “marked suppression” in [2], “none of these compounds had any significant effect” in experiment [5] and “suppressed LPS-induced promoter activity” in experiment [6]. For the same compound, the “effect on LPS-induced activation” value in experiment [3] is given as “did not have any effect”.
As to `O=C(O)c1cccnc1` [nicotinate, nicotinic acid], the “change in expression of genes involved in apoptosis and cell cycle” value in experiment [7] is recorded as “do not exhibit any change in the expression of various genes”. Also, the “effect on development of dendritic cells” value in experiment [4] was “had no effect”. The “effect on LPS-induced activation” value in experiment [8] is on record as “able to block LPS-induced activation of NF-κB promoter”.
With `CCCCCCCC(=O)O` [octanoate], the apoptosis result in experiment [9] is listed as “induced apoptosis; also recorded: leads to apoptosis in a dose-dependent manner”; in [10] it was “leads to apoptosis in a dose-dependent manner”.
For `CCC(=O)O` [propionate], the “effect on development of dendritic cells” value in experiment [4] was “able to block the development”.

(Values after patent US8309534B2, “Compositions comprising a GPR109 ligand for treating disorders of the digestive tract and/or cancer” (Medical College of Georgia Research Institute, Inc., priority 2007, dated 2012).)
